{"source": "patent US20220193076A1", "about": "“METHODS OF TREATING BREAST CANCER WITH TUCATINIB” (Seagen Inc., priority 2019, published 2022)", "key": {"OCT2": {"molecular_target": "T1, OCT2 (Homo sapiens, UniProt O15244)", "T1 construct": "expressed in transfected cells; host or cells: MDCK-II", "T1 sequence (O15244 1-555)": "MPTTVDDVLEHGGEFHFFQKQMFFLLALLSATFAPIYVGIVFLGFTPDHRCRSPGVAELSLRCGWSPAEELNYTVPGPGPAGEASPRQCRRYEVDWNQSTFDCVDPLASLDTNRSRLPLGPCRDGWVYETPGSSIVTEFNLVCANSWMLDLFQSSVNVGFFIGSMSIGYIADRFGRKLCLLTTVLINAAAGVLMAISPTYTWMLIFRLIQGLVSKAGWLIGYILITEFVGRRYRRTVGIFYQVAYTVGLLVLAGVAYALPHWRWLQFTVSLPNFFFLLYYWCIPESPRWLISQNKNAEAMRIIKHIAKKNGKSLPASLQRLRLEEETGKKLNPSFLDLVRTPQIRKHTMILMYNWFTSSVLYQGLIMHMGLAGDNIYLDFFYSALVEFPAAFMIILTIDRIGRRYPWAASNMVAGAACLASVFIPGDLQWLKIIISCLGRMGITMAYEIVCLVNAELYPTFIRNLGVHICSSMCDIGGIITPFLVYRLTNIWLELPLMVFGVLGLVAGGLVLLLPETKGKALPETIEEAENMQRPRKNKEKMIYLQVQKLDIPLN", "test": "Inhibition of OCT2 mediated transport of creatinine in transfected MDCK-II cells (Example 3)", "type": "in vitro ADME", "details": "probe substrate creatinine, 0.03 to 10 μM", "method": "Substrate dependent inhibition is common among transporters including MATE1 and MATE2-K. In this study, creatinine was used as the probe substrate to assess the inhibitory potency of Tucatinib and ONT-993. OAT2, OCT2, OCT3, MATE1, and MATE2-K are the renal transporters identified to transport creatinine. Tucatinib and its metabolite ONT-993 were tested as potential inhibitors of OAT2, OCT2, MATE1, and MATE2-K mediated transport using creatinine as a probe substrate.\nFor this study, MDCK-II were maintained in DMEM with low glucose and 10% FBS. Cells were seeded at 60K±10K cells/well on 96-well, transwell membrane plates approximately 24 hours before transfection. Transport assays were carried out approximately 48 hours after transfection. Cells were transfected and treated to express the transporter of interest or treated with a control vector. The transport of creatinine was determined by radiometric detection.\nNet transporter mediated uptake of the substrate by each transporter was calculated as follows: Net Transporter Mediated Substrate Uptake (pmol/min/cm^2)=(Cellular accumulation in the presence of the transporter)−(Mean cellular accumulation in the absence of the transporter.\nPercent inhibition was calculated as follows: Percent inhibition=100−(100*(transporter mediated uptake)with inhibition/(transporter mediated uptake)without inhibition) […]"}, "CYP3A4/5": {"test_system": "CYP3A4/5", "test": "Cytochrome P450 3A4/5 inhibition in human liver microsomes (Example 4)", "type": "in vitro ADME", "details": "both sexes, pooled human liver microsomes", "method": "This in vitro study was designed to evaluate the ability of tucatinib to inhibit the major CYP enzyme CYP3A4/5 in human liver microsomes (using two different substrates) with the aim of ascertaining the potential of tucatinib to inhibit the metabolism of concomitantly administered drugs. The inhibitory potency of tucatinib was determined in vitro by measuring the activity of CYP3A4/5 in human liver microsomes in the presence and absence of tucatinib. […] Metabolism-dependent inhibition was further evaluated to determine how quickly (kinact value) and to what extent (Ki value) tucatinib inactivates CYP3A4/5.\nHuman liver microsomes from non-transplantable, donated livers were prepared and characterized. A mixed-gender pool of 200 individual human liver microsomal samples was used for this study (Sekisui XenoTech catalog number: H2620, lot number: 1210347).\nTo measure CYP activity, incubations were conducted at approximately 37° C. in 200 μL incubation mixtures (pH 7.4) containing water, potassium phosphate buffer (50 mM), MgCl2 (3 mM), EDTA (1 mM), an NADPH-regenerating system (always the mixture of the following: NADP [1 mM], glucose 6 phosphate [5 mM], glucose 6 phosphate dehydrogenase [1 Unit/mL]), and marker substrate at the final concentrations indicated.\nAliquots of the stock and/or working solutions of tucatinib were manually added to buffer mixtures described above. Incubation mixtures were prepared in bulk to obviate the need for directly pipetting very small volumes (i.e., 1 μL or less). Incubations containing no tucatinib (0 μM; Solvent Control) contained the solvent used to dissolve tucatinib (i.e., DMSO).\nThe Tecan liquid handling system conducted all remaining steps for the IC50 and Kl/kinact determinations, with the exception of the centrifugation. For these assays, duplicate aliquots of the buffer mixtures were automatically added to 96-well plates at the appropriate locations. Aliquots of a substrate working solution were added to the 96-well plates prior to initiating reactions. Marker substrate reactions were initiated by the addition of an aliquot of an NADPH-regenerating system and were automatically terminated at approximately 5 min by the addition of the appropriate internal standard and stop reagent, acetonitrile. The samples were centrifuged at 920×g for 10 min at 10° C. The supernatant fractions were analyzed by LC-MS/MS. Standards were similarly prepared with the addition of authentic metabolite standards.\nDue to the possibility that tucatinib may bind to microsomal protein or lipids, an attempt was made to design these experiments such that, in as many cases as possible, the microsomal protein, incubation time and buffer concentration were 0.1 mg/mL, 5 min and 50 mM, respectively.\nTo examine its ability to act as a direct inhibitor of enzymes, tucatinib (at concentrations ranging from 0.01 to 10 μM) was incubated with marker substrate and human liver microsomes. The concentrations of marker substrates were based on the Km or S50 data that were determined previously.\nTo examine its ability to act as a metabolism-dependent inhibitor of CYP3A4/5 enzymes, tucatinib (at the same concentrations used to evaluate direct inhibition) was preincubated at 37±2° C., in duplicate, with human liver microsomes and an NADPH-regenerating system for approximately 30 min. This preincubation allowed for the generation of intermediates that could inhibit human CYP3A4/5 activity. The preincubations were initiated by the addition of an aliquot of an NADPH-regenerating system. To examine its ability to act as a time-dependent inhibitor of CYP3A4/5 enzymes, additional duplicate samples at all tucatinib concentrations were preincubated for 30 min in the presence of pooled human liver microsomes, but in the absence of NADPH. This preincubation allowed assessment of whether any potential increase in inhibition was dependent upon NADPH (e.g., potentially CYP-mediated). […]"}}, "note": "Like-named read-outs stand apart in the source and are kept apart here."}
{"smiles": "Cc1cc(Nc2ncnc3ccc(NC4=NC(C)(C)CO4)cc23)ccc1Oc1ccn2ncnc2c1", "note": "[tucatinib]", "values": [{"measurement": "IC50", "setting": "OCT2", "result": "107 ± 37.9", "unit": "nM"}, {"measurement": "kinact/KI", "setting": "CYP3A4/5; human, pH 7.4, probe midazolam (1′-hydroxylation), midazolam 1′-hydroxylation, read-out: Efficiency of inactivation (kinact/KI) (converted)", "result": 350, "unit": "M⁻¹ s⁻¹"}, {"measurement": "IC50 at 5 min", "setting": "CYP3A4/5; human, pH 7.4, probe midazolam (1′-hydroxylation), read-out: IC50, direct inhibition of CYP3A4/5-mediated midazolam 1′-hydroxylation", "result": 3300, "unit": "nM"}, {"measurement": "KI (inactivation)", "setting": "CYP3A4/5; human, pH 7.4, probe midazolam (1′-hydroxylation), read-out: KI, inactivation of CYP3A4/5-mediated midazolam 1′-hydroxylation, mean±SE", "result": "540 ± 250", "unit": "nM"}, {"measurement": "kinact", "setting": "CYP3A4/5; human, pH 7.4, probe midazolam (1′-hydroxylation), read-out: kinact, inactivation of CYP3A4/5-mediated midazolam 1′-hydroxylation, mean±SE (converted)", "result": 0.000183, "unit": "s⁻¹"}, {"measurement": "IC50 at 5 min", "setting": "CYP3A4/5; human, pH 7.4, probe testosterone (6β-hydroxylation), read-out: IC50, direct inhibition of CYP3A4/5-mediated testosterone 6p-hydroxylation", "result": "> 10000", "unit": "nM"}, {"measurement": "inhibition at 5 min", "setting": "CYP3A4/5; pH 7.4, probe testosterone (6β-hydroxylation), human liver microsomes, up to 10 μM, read-out: Maximum direct inhibition of CYP3A4/5-mediated testosterone 6p-hydroxylation", "result": 44, "unit": "%"}]}
